Target: T1, Alpha-1A adrenergic receptor (Homo sapiens, UniProt P35348)
T1 sequence (P35348 whole entry): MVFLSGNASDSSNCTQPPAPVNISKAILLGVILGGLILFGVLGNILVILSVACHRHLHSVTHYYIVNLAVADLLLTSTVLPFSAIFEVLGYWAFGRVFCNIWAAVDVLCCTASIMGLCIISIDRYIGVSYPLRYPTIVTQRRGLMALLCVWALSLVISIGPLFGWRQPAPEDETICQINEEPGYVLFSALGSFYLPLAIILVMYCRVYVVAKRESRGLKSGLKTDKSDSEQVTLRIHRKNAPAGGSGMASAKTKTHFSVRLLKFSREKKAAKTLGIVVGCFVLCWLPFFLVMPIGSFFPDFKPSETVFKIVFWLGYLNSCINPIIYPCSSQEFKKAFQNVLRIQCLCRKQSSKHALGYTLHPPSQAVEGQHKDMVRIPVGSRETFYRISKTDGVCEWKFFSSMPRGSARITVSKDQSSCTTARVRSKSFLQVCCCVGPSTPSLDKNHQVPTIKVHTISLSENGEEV
Assay type: functional, cell-based
Further: assay procedure not described here.

| Compound | AC50 [µM] |
| --- | --- |
| N#Cc1ccc(Oc2ccc3c(c2)COB3O)cc1 [CRISABOROLE] | 4.32 |
| COC(=O)C[C@](O)(CCCC(C)(C)O)C(=O)O[C@@H]1C(OC)=C[C@]23CCCN2CCc2cc4c(cc2[C@H]13)OCO4 [OMACETAXINE MEPESUCCINATE] | > 30 |
| COc1cccc(C(=O)CCN[C@@H](C)[C@H](O)c2ccccc2)c1 [OXYFEDRINE] | 0.205 |
| CC[N+](C)(CC)CCOC(=O)C(O)(c1ccccc1)C1CCCCC1 (stereo not drawn) [OXYPHENONIUM] | > 30 |
| C[C@@H]1C[C@H]2[C@@H]3C[C@H](F)C4=CC(=O)C=C[C@]4(C)[C@H]3[C@@H](O)C[C@]2(C)[C@@]1(O)C(=O)CO [PARAMETHASONE] | > 30 |
| CCC[C@H](N[C@@H](C)C(=O)N1[C@H](C(=O)O)C[C@@H]2CCCC[C@@H]21)C(=O)OCC [PERINDOPRIL] | > 30 |
| NNCCc1ccccc1 [PHENELZINE] | > 1 |
| N[C@@H](Cc1ccccc1)C(=O)O [PHENYLALANINE] | > 30 |
| CCCn1cnc2c1c(=O)n(CCCCC(C)=O)c(=O)n2C [PROPENTOFYLLINE] | > 30 |
| COc1cc(C)c2c(Oc3cccc(C(F)(F)F)c3)c(OC)cc(NC(C)CCCN)c2n1 (stereo not drawn) [TAFENOQUINE] | > 3 |
| CCCSc1nc(N[C@@H]2C[C@H]2c2ccc(F)c(F)c2)c2nnn([C@@H]3C[C@H](OCCO)[C@@H](O)[C@H]3O)c2n1 [TICAGRELOR] | > 10 |
| Cc1ccc(C(=O)C(C)CN2CCCCC2)cc1 (stereo not drawn) [TOLPERISONE] | > 30 |

Target: 3',5'-cyclic-AMP phosphodiesterase 4D (Homo sapiens, UniProt Q08499)
Sequence (Q08499 whole entry): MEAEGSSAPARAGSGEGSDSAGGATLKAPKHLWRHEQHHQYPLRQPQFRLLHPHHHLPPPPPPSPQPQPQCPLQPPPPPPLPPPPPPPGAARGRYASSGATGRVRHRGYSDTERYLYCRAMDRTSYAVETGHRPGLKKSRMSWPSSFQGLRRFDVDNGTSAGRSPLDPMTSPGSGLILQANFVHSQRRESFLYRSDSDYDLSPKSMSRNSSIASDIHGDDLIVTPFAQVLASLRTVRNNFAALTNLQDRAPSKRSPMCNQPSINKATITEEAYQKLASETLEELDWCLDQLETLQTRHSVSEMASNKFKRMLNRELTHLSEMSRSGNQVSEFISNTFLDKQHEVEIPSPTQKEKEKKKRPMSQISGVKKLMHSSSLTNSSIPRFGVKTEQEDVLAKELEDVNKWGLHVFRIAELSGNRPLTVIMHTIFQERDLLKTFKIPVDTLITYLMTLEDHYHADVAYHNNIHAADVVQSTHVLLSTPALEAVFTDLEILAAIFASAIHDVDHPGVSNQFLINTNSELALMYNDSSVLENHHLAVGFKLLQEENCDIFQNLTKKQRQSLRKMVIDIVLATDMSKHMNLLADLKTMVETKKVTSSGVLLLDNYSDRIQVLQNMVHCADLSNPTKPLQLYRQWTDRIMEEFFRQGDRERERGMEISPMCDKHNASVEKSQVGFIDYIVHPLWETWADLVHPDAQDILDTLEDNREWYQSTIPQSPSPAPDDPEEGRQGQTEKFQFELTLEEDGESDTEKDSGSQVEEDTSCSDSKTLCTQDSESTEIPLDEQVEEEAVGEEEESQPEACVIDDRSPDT
Assay type: functional

| Compound | AC50 [µM] |
| --- | --- |
| N#Cc1ccc(Oc2ccc3c(c2)COB3O)cc1 [CRISABOROLE] | 0.8 |

Source: ChEMBL document CHEMBL5291721, “A preclinical secondary pharmacology resource illuminates target-adverse drug reaction associations of marketed drugs” (Nat Commun, 2023)
